Experimental data from ChEMBL document CHEMBL4308841, “Synthesis, in vitro antiproliferative activity, and kinase inhibitory effects of pyrazole-containing diarylureas and diarylamides” (Eur J Med Chem, 2018).

Experiments:
K562 = experiment: Growth inhibition of human K562 cells incubated for 48 hrs by sulforhodamine B assay; format: functional, cell-based; conditions: K562, 48 h
NCI-H522 = experiment: Growth inhibition of human NCI-H522 cells incubated for 48 hrs by sulforhodamine B assay; format: functional, cell-based; conditions: NCI-H522, 48 h
COLO 205 = experiment: Growth inhibition of human COLO205 cells incubated for 48 hrs by sulforhodamine B assay; format: functional, cell-based; conditions: COLO 205, 48 h
SN12C = experiment: Growth inhibition of human SN12C cells incubated for 48 hrs by sulforhodamine B assay; format: functional, cell-based
A549 = experiment: Growth inhibition of human A549/ATCC cells assessed as cell growth at 0.01 uM incubated for 48 hrs by sulforhodamine B assay relative to control; format: functional; conditions: A549, 48 h, read-out: Activity
NCI-H23 = experiment: Growth inhibition of human NCI-H23 cells assessed as cell growth at 0.01 uM incubated for 48 hrs by sulforhodamine B assay relative to control; format: functional; conditions: NCI-H23, 48 h, read-out: Activity
SNB-19 = experiment: Growth inhibition of human SNB19 cells assessed as cell growth at 0.01 uM incubated for 48 hrs by sulforhodamine B assay relative to control; format: functional; conditions: SNB-19, 48 h, read-out: Activity
MDA-MB-435 [1] = experiment: Growth inhibition of human MDA-MB-435 cells assessed as cell growth at 0.01 uM incubated for 48 hrs by sulforhodamine B assay relative to control; format: functional; conditions: MDA-MB-435, 48 h, read-out: Activity
SK-MEL-2 = experiment: Growth inhibition of human SK-MEL-2 cells assessed as cell growth at 0.01 uM incubated for 48 hrs by sulforhodamine B assay relative to control; format: functional; conditions: SK-MEL-2, 48 h, read-out: Activity
OVCAR-8 = experiment: Growth inhibition of human OVCAR8 cells assessed as cell growth at 0.01 uM incubated for 48 hrs by sulforhodamine B assay relative to control; format: functional; conditions: OVCAR-8, 48 h, read-out: Activity
SK-OV-3 = experiment: Growth inhibition of human SKOV3 cells assessed as cell growth at 0.01 uM incubated for 48 hrs by sulforhodamine B assay relative to control; format: functional; conditions: SK-OV-3, 48 h, read-out: Activity
A498 = experiment: Growth inhibition of human A498 cells assessed as cell growth at 0.01 uM incubated for 48 hrs by sulforhodamine B assay relative to control; format: functional; conditions: A498, 48 h, read-out: Activity
BT-549 [2] = experiment: Growth inhibition of human BT549 cells assessed as cell growth at 0.01 uM incubated for 48 hrs by sulforhodamine B assay relative to control; format: functional; conditions: BT-549, 48 h, read-out: Activity
SR = experiment: Growth inhibition of human SR cells assessed as cell growth at 0.1 uM incubated for 48 hrs by sulforhodamine B assay relative to control; format: functional; conditions: read-out: Activity
KM12 = experiment: Growth inhibition of human KM12 cells assessed as cell growth at 0.1 uM incubated for 48 hrs by sulforhodamine B assay relative to control; format: functional; conditions: KM12, 48 h, read-out: Activity
NCI/ADR-RES = experiment: Growth inhibition of human NCI/ADR-RES cells assessed as cell growth at 0.1 uM incubated for 48 hrs by sulforhodamine B assay relative to control; format: functional; conditions: read-out: Activity
DU-145 = experiment: Growth inhibition of human DU145 cells assessed as cell growth at 0.1 uM incubated for 48 hrs by sulforhodamine B assay relative to control; format: functional; conditions: DU-145, 48 h, read-out: Activity
MDA-MB-231 = experiment: Growth inhibition of human MDA-MB-231 cells assessed as cell growth at 0.1 uM incubated for 48 hrs by sulforhodamine B assay relative to control; format: functional; conditions: MDA-MB-231, 48 h, read-out: Activity
Hs-578T = experiment: Growth inhibition of human Hs578T cells assessed as cell growth at 0.1 uM incubated for 48 hrs by sulforhodamine B assay relative to control; format: functional; conditions: read-out: Activity
MDA-MB-468 = experiment: Growth inhibition of human MDA-MB-468 cells assessed as cell growth at 0.1 uM incubated for 48 hrs by sulforhodamine B assay relative to control; format: functional; conditions: MDA-MB-468, 48 h, read-out: Activity
NCI-H226 = experiment: Growth inhibition of human NCI-H226 cells assessed as cell growth at 1 uM incubated for 48 hrs by sulforhodamine B assay relative to control; format: functional; conditions: NCI-H226, 48 h, read-out: Activity
SF-539 = experiment: Growth inhibition of human SF539 cells assessed as cell growth at 1 uM incubated for 48 hrs by sulforhodamine B assay relative to control; format: functional; conditions: SF-539, 48 h, read-out: Activity
LOX IMVI = experiment: Growth inhibition of human LOXIMVI cells assessed as cell growth at 1 uM incubated for 48 hrs by sulforhodamine B assay relative to control; format: functional; conditions: read-out: Activity
SK-MEL-5 = experiment: Growth inhibition of human SK-MEL-5 cells assessed as cell growth at 1 uM incubated for 48 hrs by sulforhodamine B assay relative to control; format: functional; conditions: SK-MEL-5, 48 h, read-out: Activity
BT-549 [3] = experiment: Growth inhibition of human BT549 cells assessed as cell growth at 1 uM incubated for 48 hrs by sulforhodamine B assay relative to control; format: functional; conditions: BT-549, 48 h, read-out: Activity
HT-29 = experiment: Growth inhibition of human HT-29 cells assessed as cell growth at 100 uM incubated for 48 hrs by sulforhodamine B assay relative to control; format: functional; conditions: HT-29, 48 h, read-out: Activity
SW-620 = experiment: Growth inhibition of human SW620 cells assessed as cell growth at 100 uM incubated for 48 hrs by sulforhodamine B assay relative to control; format: functional; conditions: SW-620, 48 h, read-out: Activity
SF-268 = experiment: Growth inhibition of human SF268 cells assessed as cell growth at 100 uM incubated for 48 hrs by sulforhodamine B assay relative to control; format: functional; conditions: SF-268, 48 h, read-out: Activity
MDA-MB-435 [4] = experiment: Growth inhibition of human MDA-MB-435 cells assessed as cell growth at 100 uM incubated for 48 hrs by sulforhodamine B assay relative to control; format: functional; conditions: MDA-MB-435, 48 h, read-out: Activity
IGROV-1 = experiment: Growth inhibition of human IGROV1 cells assessed as cell growth at 100 uM incubated for 48 hrs by sulforhodamine B assay relative to control; format: functional; conditions: IGROV-1, 48 h, read-out: Activity
[5] = read-out: LC50 (the source's name)
[6] = read-out: pLC50 (the source's name) (converted)

Compound: COc1cc(Cl)cc(-c2nn(-c3cccc(NC(=O)c4cccc(C(F)(F)F)c4)c3)cc2-c2ccncc2)c1
- GI50 (K562; read-out: GI50): 4.59 µM
- LC50 (K562; read-out: LC50): > 100 µM
- TGI (K562; read-out: TGI): > 100 µM
- GI50 (K562; read-out: pGI50 (converted)): 4.68 µM
- LC50 (K562; read-out: pLC50 (converted)): > 100 µM
- TGI (K562; read-out: pTGI (converted)): > 100 µM
- GI50 (NCI-H522; read-out: GI50): 1.9 µM
- CC50 (NCI-H522; [5]): > 100 µM
- TGI (NCI-H522; read-out: TGI): > 100 µM
- GI50 (NCI-H522; read-out: pGI50 (converted)): 2 µM
- CC50 (NCI-H522; [6]): > 100 µM
- TGI (NCI-H522; read-out: pTGI (converted)): > 100 µM
- GI50 (COLO 205; read-out: GI50): 3.37 µM
- CC50 (COLO 205; [5]): > 100 µM
- TGI (COLO 205; read-out: TGI): > 100 µM
- GI50 (COLO 205; read-out: pGI50 (converted)): 33.9 µM
- CC50 (COLO 205; [6]): > 100 µM
- TGI (COLO 205; read-out: pTGI (converted)): > 100 µM
- GI50 (SN12C; read-out: GI50): > 100 µM
- LC50 (SN12C; read-out: LC50): > 100 µM
- TGI (SN12C; read-out: TGI): > 100 µM
- GI50 (SN12C; read-out: pGI50 (converted)): > 100 µM
- LC50 (SN12C; read-out: pLC50 (converted)): > 100 µM
- TGI (SN12C; read-out: pTGI (converted)): > 100 µM
- growth at 0.01 µM (A549): 98%
- growth at 0.01 µM (NCI-H23): 93%
- growth at 0.01 µM (SNB-19): 96%
- growth at 0.01 µM (MDA-MB-435 [1]): 98%
- growth at 0.01 µM (SK-MEL-2): 52%
- growth at 0.01 µM (OVCAR-8): 103%
- growth at 0.01 µM (SK-OV-3): 102%
- growth at 0.01 µM (A498): 58%
- growth at 0.01 µM (BT-549 [2]): 108%
- growth at 0.1 µM (SR): 54%
- growth at 0.1 µM (KM12): 111%
- growth at 0.1 µM (NCI/ADR-RES): 104%
- growth at 0.1 µM (DU-145): 107%
- growth at 0.1 µM (MDA-MB-231): 90%
- growth at 0.1 µM (Hs-578T): 89%
- growth at 0.1 µM (MDA-MB-468): 85%
- growth at 1 µM (NCI-H226): 54%
- growth at 1 µM (SF-539): 52%
- growth at 1 µM (LOX IMVI): 88%
- growth at 1 µM (SK-MEL-5): 57%
- growth at 1 µM (BT-549 [3]): 94%
- growth at 100 µM (HT-29): 34%
- growth at 100 µM (SW-620): 57%
- growth at 100 µM (SF-268): 58%
- growth at 100 µM (MDA-MB-435 [4]): 52%
- growth at 100 µM (IGROV-1): 70%

Compound: COc1cc(Cl)cc(-c2nn(-c3cccc(NC(=O)Nc4cccc(C(F)(F)F)c4)c3)cc2-c2ccncc2)c1
- GI50 (K562; read-out: GI50): 0.823 µM
- LC50 (K562; read-out: LC50): > 100 µM
- TGI (K562; read-out: TGI): 14.4 µM
- GI50 (K562; read-out: pGI50 (converted)): 0.832 µM
- LC50 (K562; read-out: pLC50 (converted)): > 100 µM
- TGI (K562; read-out: pTGI (converted)): 14.5 µM
- GI50 (NCI-H522; read-out: GI50): 0.445 µM
- CC50 (NCI-H522; [5]): 10 µM
- TGI (NCI-H522; read-out: TGI): 25.1 µM
- CC50 (NCI-H522; [6]): 10.2 µM
- GI50 (COLO 205; read-out: GI50): 1.53 µM
- CC50 (COLO 205; [5]): 65.5 µM
- TGI (COLO 205; read-out: TGI): 31.7 µM
- GI50 (COLO 205; read-out: pGI50 (converted)): 1.51 µM
- CC50 (COLO 205; [6]): 6.61 µM
- TGI (COLO 205; read-out: pTGI (converted)): 3.16 µM
- GI50 (SN12C; read-out: GI50): 2.06 µM
- LC50 (SN12C; read-out: LC50): > 100 µM
- TGI (SN12C; read-out: TGI): 15.5 µM
- GI50 (SN12C; read-out: pGI50 (converted)): 2.04 µM
- LC50 (SN12C; read-out: pLC50 (converted)): > 100 µM
- TGI (SN12C; read-out: pTGI (converted)): 18.6 µM
- growth at 0.01 µM (A549): 100%
- growth at 0.01 µM (NCI-H23): 97%
- growth at 0.01 µM (SNB-19): 98%
- growth at 0.01 µM (MDA-MB-435 [1]): 100%
- growth at 0.01 µM (SK-MEL-2): 95%
- growth at 0.01 µM (OVCAR-8): 97%
- growth at 0.01 µM (SK-OV-3): 92%
- growth at 0.01 µM (A498): 95%
- growth at 0.01 µM (BT-549 [2]): 107%
- growth at 0.1 µM (SR): 93%
- growth at 0.1 µM (KM12): 95%
- growth at 0.1 µM (NCI/ADR-RES): 98%
- growth at 0.1 µM (DU-145): 99%
- growth at 0.1 µM (MDA-MB-231): 103%
- growth at 0.1 µM (Hs-578T): 93%
- growth at 0.1 µM (MDA-MB-468): 92%
- growth at 1 µM (NCI-H226): 77%
- growth at 1 µM (SF-539): 84%
- growth at 1 µM (LOX IMVI): 72%
- growth at 1 µM (SK-MEL-5): 80%
- growth at 1 µM (BT-549 [3]): 93%
- growth at 100 µM (HT-29): -97%
- growth at 100 µM (SW-620): -11%
- growth at 100 µM (SF-268): -28%
- growth at 100 µM (MDA-MB-435 [4]): -74%
- growth at 100 µM (IGROV-1): -12%
